# Assay results: ChEMBL document CHEMBL1250455, “Further delineation of hydrophobic binding sites in dopamine D(2)/D(3) receptors for N-4 substituents on the piperazine ring of the hybrid template 5/7-{[2-(4-aryl-piperazin-1-yl)-ethyl]-propyl-amino}-5,6,7,8-tetrahydro-naphthalen-2-ol” (Bioorg Med Chem, 2010)
# Columns and labels:
# D(2) dopamine receptor [1] = biological target: D(2) dopamine receptor (Rattus norvegicus, UniProt P61169); assay: Displacement of [3H]spiperone from rat D2 receptor expressed in HEK293 cells; format: cell-based
# D(2) dopamine receptor [2] = biological target: T1, D(2) dopamine receptor (Homo sapiens, UniProt P14416); assay: Agonist activity at human dopamine D2 receptor expressed in CHO cells assessed as stimulation of [35S]GTPgammaS binding relative to dopamine; format: functional, cell-based
# Rattus norvegicus = species: Rattus norvegicus; assay: Selectivity ratio for Ki for rat D2 receptor to Ki for rat D3 receptor
# Homo sapiens = species: Homo sapiens; assay: Selectivity ratio of EC50 for human dopamine D2 receptor to EC50 for human dopamine D3 receptor
# D(3) dopamine receptor [3] = biological target: D(3) dopamine receptor (Rattus norvegicus, UniProt P19020); assay: Displacement of [3H]spiperone from rat D3 receptor expressed in HEK293 cells; format: cell-based
# D(2) dopamine receptor [4] = biological target: T1, D(2) dopamine receptor; assay: Agonist activity at human dopamine D2 receptor expressed in CHO cells assessed as stimulation of [35S]GTPgammaS binding; format: functional, cell-based
# D(3) dopamine receptor [5] = biological target: D(3) dopamine receptor (Homo sapiens, UniProt P35462); assay: Agonist activity at human dopamine D3 receptor expressed in CHO cells assessed as stimulation of [35S]GTPgammaS binding; format: functional, cell-based
# Sequence of D(3) dopamine receptor (Homo sapiens, UniProt P35462) (P35462 whole entry): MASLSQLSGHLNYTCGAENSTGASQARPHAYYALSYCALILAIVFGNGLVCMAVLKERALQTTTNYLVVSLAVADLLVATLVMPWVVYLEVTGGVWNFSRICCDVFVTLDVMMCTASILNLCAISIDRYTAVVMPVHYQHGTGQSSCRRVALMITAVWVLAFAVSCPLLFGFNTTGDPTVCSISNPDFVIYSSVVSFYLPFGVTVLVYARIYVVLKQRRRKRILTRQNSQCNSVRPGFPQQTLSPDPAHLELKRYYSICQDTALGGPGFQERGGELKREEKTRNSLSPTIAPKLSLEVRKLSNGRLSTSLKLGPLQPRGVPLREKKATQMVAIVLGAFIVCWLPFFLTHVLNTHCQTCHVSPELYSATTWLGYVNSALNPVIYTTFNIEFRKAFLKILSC
# Sequence of D(2) dopamine receptor (Rattus norvegicus, UniProt P61169) (P61169 whole entry): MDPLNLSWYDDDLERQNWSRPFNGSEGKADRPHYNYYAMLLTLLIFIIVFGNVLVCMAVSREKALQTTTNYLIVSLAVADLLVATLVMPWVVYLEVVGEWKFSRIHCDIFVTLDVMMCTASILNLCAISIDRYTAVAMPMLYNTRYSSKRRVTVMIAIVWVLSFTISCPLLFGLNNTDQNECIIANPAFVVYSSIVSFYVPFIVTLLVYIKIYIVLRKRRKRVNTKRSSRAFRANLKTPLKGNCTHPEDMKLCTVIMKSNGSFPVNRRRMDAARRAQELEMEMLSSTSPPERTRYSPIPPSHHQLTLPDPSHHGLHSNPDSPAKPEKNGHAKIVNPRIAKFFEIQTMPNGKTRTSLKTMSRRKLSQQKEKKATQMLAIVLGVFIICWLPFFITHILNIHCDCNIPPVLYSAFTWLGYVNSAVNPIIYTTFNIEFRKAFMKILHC
# T1 sequence (P14416 whole entry): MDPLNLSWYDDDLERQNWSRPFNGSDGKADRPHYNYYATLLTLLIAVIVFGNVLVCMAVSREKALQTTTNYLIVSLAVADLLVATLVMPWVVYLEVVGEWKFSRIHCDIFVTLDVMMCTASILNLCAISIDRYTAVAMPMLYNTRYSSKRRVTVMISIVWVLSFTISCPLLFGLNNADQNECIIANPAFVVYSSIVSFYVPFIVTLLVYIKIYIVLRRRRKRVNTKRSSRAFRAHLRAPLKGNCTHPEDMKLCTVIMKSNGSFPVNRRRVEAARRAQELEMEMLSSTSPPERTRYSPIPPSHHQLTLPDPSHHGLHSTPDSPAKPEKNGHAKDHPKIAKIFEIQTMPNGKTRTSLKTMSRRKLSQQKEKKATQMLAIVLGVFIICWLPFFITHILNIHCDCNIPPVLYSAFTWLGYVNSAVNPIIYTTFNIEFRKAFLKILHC
# Sequence of D(3) dopamine receptor (Rattus norvegicus, UniProt P19020) (P19020 whole entry): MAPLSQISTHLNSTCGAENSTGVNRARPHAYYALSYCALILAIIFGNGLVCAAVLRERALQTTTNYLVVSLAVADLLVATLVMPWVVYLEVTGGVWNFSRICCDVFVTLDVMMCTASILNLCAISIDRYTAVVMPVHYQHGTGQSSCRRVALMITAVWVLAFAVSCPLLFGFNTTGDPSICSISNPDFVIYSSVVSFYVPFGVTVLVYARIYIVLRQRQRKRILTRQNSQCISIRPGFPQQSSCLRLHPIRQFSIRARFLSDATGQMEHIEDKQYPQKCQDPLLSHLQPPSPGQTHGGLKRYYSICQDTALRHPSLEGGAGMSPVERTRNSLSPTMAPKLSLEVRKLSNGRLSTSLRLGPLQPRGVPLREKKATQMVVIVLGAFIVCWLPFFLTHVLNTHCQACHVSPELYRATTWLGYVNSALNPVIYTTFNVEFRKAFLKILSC
Ki (D(2) dopamine receptor [1]),Emax (D(2) dopamine receptor [2]),Ratio Ki (Rattus norvegicus),Ratio EC50 (Homo sapiens),Ki (D(3) dopamine receptor [3]),EC50 (D(2) dopamine receptor [4]),EC50 (D(3) dopamine receptor [5]),Compound
24.7 nM,,,,,,,CCCN(CCN1CCN(c2ccc(-c3ccncc3)cc2)CC1)C1CCc2ccc(O)cc2C1 (stereo in doubt; 22d) [listing 1 of 2 here]
53.6 nM,71.8%,22.7,202,2.36 nM,52.6 nM,0.25 nM,"CCCN(CCN1CCN(c2ccc(-c3ccccc3)cc2)CC1)C1CCc2c(O)cccc2C1 (single isomer, unassigned; (-))"
68.3 nM,,4.84,,14.1 nM,,,CCCN(CCN1CCN(c2ccncc2)CC1)C1CCc2ccc(O)cc2C1 (configuration not stated)
21.7 nM,,7.51,,2.89 nM,,,CCCN(CCN1CCN(c2cccnc2)CC1)C1CCc2ccc(O)cc2C1 (configuration not stated)
,,32,,,,,CCCN(CCN1CCN(c2ccc(-c3ccncc3)cc2)CC1)C1CCc2ccc(O)cc2C1 (stereo in doubt; 22d) [listing 2 of 2 here]
,100%,,,,,,NCCc1ccc(O)c(O)c1
103 nM,,52.6,,1.96 nM,,,CCCN(CCN1CCN(c2ccccn2)CC1)C1CCc2ccc(O)cc2C1 (configuration not stated)

# More lines, now with the values behind:
Compound,Ki (D(2) dopamine receptor [1]),Emax (D(2) dopamine receptor [2]),Ratio Ki (Rattus norvegicus),Ratio EC50 (Homo sapiens),Ki (D(3) dopamine receptor [3]),EC50 (D(2) dopamine receptor [4]),EC50 (D(3) dopamine receptor [5])
CCCN(CCC)CCc1cccc2c1CC(=O)N2 [ROPINIROLE],2670 nM,83.9%,,,,,
CCCN(CCN1CCN(c2ccc(-c3ccccc3)cc2)CC1)C1CCc2ccc(O)cc2C1 (stereo in doubt; (+)-8a) [listing 1 of 2 here],,42.1%,20.8,105,,,
CCCN(CCN1CCN(c2ncccn2)CC1)C1CCc2ccc(O)cc2C1 (configuration not stated),165 nM,,24.1,,6.84 nM,,
CCCN(CCN1CCN(c2ccc(-c3ccccc3)cc2)CC1)C1CCc2ccc(O)cc2C1 (stereo in doubt; 8a),64.1 nM,,,,5.22 nM,,
"CCCN(CCN1CCN(c2ccc(-c3ccncc3)cc2)CC1)C1CCc2c(O)cccc2C1 (single isomer, unassigned; (-))",,,,,1.53 nM,,
CCCN(CCN1CCN(c2ccc(-c3cccnc3)cc2)CC1)C1CCc2ccc(O)cc2C1 (racemic),59.1 nM,,19.6,,3.01 nM,,
CCCN(CCN1CCN(c2ccc(I)cc2)CC1)C1CCc2ccc(O)cc2C1 (configuration not stated),46.4 nM,,6.06,,7.66 nM,,
CCCN(CCN1CCN(c2ccc(-c3ccccc3)cc2)CC1)C1CCc2ccc(O)cc2C1 (stereo in doubt; (+)-8a) [listing 2 of 2 here],58 nM,,,,2.79 nM,108 nM,1.03 nM
CCCN(CCN1CCN(c2nccc3ccccc23)CC1)[C@H]1CCc2nc(N)sc2C1,,,121,,,,
"CCCN(CCN1CCN(c2ccc(-c3ccncc3)cc2)CC1)C1CCc2ccc(O)cc2C1 (single isomer, unassigned; (-))",,,24.6,,,,
